Measured values from PMC2806525, “Proteinase-activated receptor-2 mediated inhibition of TNFα-stimulated JNK activation — A novel paradigm for Gq/11 linked GPCRs” (Cellular Signalling, 2010).
“Also recorded” adds a separate entry of the source.

Assays:
Gq/11 [1] = conditions: ref [29]; cited from earlier work
Description: Thus, DAG derived from Gq/11 activation is likely to drive PKC activation and subsequent inhibition of TNFα stimulated JNK activity. Previously, we have shown that Gq/11 plays a positive role in the regulation of PAR2 mediated NFκB p ...

Gq/11 [2] = assay: Reversal by Gq/11 inhibitor of PAR2 mediated inhibition of TNFα-stimulated JNK activity, PAR2 NCTC2544 cells; assay type: cell-based, human; conditions: increasing concentrations YM254890 30 min, SLIGKV-OH 100 μM 30 min, TNFα 10 ng/ml 30 min
Method: (§1) Human skin epithelial cells NCTC2544 were maintained in M199 medium with Earl's salt supplement, 10% (v/v) foetal calf serum, L-glutamine (27 µg/ml), penicillin (250 U/ml), and streptomycin (25 mg/ml). NCTC2544 cells stably expressing human PAR2 (clone G) were maintained in complete M199 medium containing 400 μg/ml of Geneticin for selection pressure and passaged using Versene (2% EDTA/PBS). EAhy-926 cells were produced by hybridizing human umbilical vein endothelial cells (HUVECs) with the epithelial cell line A549 [27] and maintained in Dulbecco's Modified Eagle's Medium (DMEM) supplemented with 10% foetal calf serum (FCS), hypoxanthine/aminopterin/thymidine (HAT supplement), penicillin (250 U/ml) and streptomycin (25 mg/ml), and cells were passaged using Versene.
To measure JNK activity, cells were stimulated as appropriate and the reaction terminated by rapid aspiration and the addition of ice-cold PBS. […] Phosphorylation of GST-c-Jun was then determined by autoradiography. […]
(§2) Fig. 6 Gq/11 is essential for PAR2 mediated inhibition of JNK activation by TNFα. […] Samples were assessed for phospho-JNK levels (Panels A and D) or JNK activity (Panel B) as outlined in the Methods section. Gels from JNK activity assays were quantified by densitometry (Panel C). […]

TNFR1/TRADD = TNFR1/TRADD complex formation (TNFR1 immuno-precipitation, TRADD immuno-blot), PAR2 expressing cells; assay type: cell-based, human; conditions: 100 nM YM254890 or 3 μM GF109203X 30 min, peptide 100 μM 30 min, TNFα 10 ng/ml 30 min
Method: as §1
Proteins were separated by 10% SDS–PAGE and transferred onto nitrocellulose. The membranes were blocked for non-specific binding for 2 h in 2% BSA (w/v) diluted in NATT buffer (50 mM Tris–HCl, 150 mM NaCl, 0.2% (v/v) Tween-20). The blots were then incubated overnight with 50 ng/ml primary antibody diluted in 0.2% BSA (w/v) in NATT buffer. The blots were washed with NATT buffer for 90 min and incubated with HRP-conjugated secondary antibody (20 ng/ml in 0.2% BSA (w/v) diluted in NATT buffer) for 2 h. After a further 90 min wash, the blots were subjected to ECL reagent and exposed to Kodak X-ray film.
For immuno-precipitation of TNFR1, equal amounts of pre-cleared cell lysates were incubated in Tris–HCl buffer, pH 7.4, containing 50 mM NaCl, 1 mM EDTA, 1 mM EGTA, 1% (w/v) Triton X-100, and 0.5% (w/v) Nonidet P-40, with 2 μg TNFR1 antibody, pre-coupled to protein G, for 3 h. Lysates were recovered by sequential washes in solubilisation buffer and in the same buffer lacking detergents. Precipitates were assessed for TRADD or RIP content using Western blotting.
Fig. 7 PAR2 mediated TNFR1 adapter protein disruption in PAR2 expressing cells. In Panel A, cells were pre-treated with peptide (100 μM) or vehicle prior to stimulation with TNFα (10 ng/ml) for 30 min. Lysates were immuno-precipitated for TNFR1 and immuno-blotted for TRADD and/or RIP, as outlined in the Methods section. In Panel B cells were pre-treated with 100 nM YM254890 or 3 μM GF109203X for 30 min prior to pre-treatment with peptide (100 μM), for 30 min, then incubated for a further 30 min with TNFα (10 ng/ml). TNFR1 immuno-precipitates were immuno-blotted for TRADD. Each gel is representative of at least three experiments.

Gq/11 [3] = assay: Reversal by Gq/11 inhibitor of PAR2 mediated inhibition of TNFα-stimulated JNK phosphorylation, PAR2 NCTC2544 cells; assay type: cell-based, human; conditions: 100 nM YM254890 30 min, SLIGKV-OH 100 μM 30 min, TNFα 10 ng/ml 30 min
Method: as §1
Proteins were separated by 10% SDS–PAGE and transferred onto nitrocellulose. The membranes were blocked for non-specific binding for 2 h in 2% BSA (w/v) diluted in NATT buffer (50 mM Tris–HCl, 150 mM NaCl, 0.2% (v/v) Tween-20). The blots were then incubated overnight with 50 ng/ml primary antibody diluted in 0.2% BSA (w/v) in NATT buffer. […]
as §2

PKC [4] = assay: TNFα-stimulated JNK activity, PKC activator / PKC inhibitor, PAR2 NCTC2544 cells; assay type: cell-based, human; conditions: 100 nM PMA 30 min, TNFα 10 ng/ml 30 min
Method: as §1
(§3) To measure JNK activity, cells were stimulated as appropriate and the reaction terminated by rapid aspiration and the addition of ice-cold PBS. The cells were solubilised in 20 mM HEPES buffer, pH 7.7, containing 50 mM NaCl, 0.1 mM EDTA, 0.1 mM Na3VO4, 0.1 mM PMSF, 10 mg/ml aprotinin, 10 mg/ml leupeptin, and 1% (w/v) Triton X-100. Lysates were clarified by centrifugation for 5 min at 13,000 rpm and equal amounts of protein were incubated with 20 μg of GST-c-Jun-(5–89) immobilized on glutathione-Sepharose at 4 °C for 3 h. Beads were then washed three times in solubilisation buffer and twice in 25 mM HEPES buffer, pH 7.6, containing 20 mM β-glycerophosphate, 0.1 mM NaV3O4, and 2 mM dithiothreitol. Precipitates were then incubated with the same buffer containing 25 μM/0.5 μCi of ATP/[γ-^32P] ATP in a final volume of 30 µl at 30 °C for 30 min. The reactions were terminated by the addition of 4× SDS-sample buffer and aliquots of each sample subjected to electrophoresis on 11% SDS-polyacrylamide gel electrophoresis. Phosphorylation of GST-c-Jun was then determined by autoradiography.
Where experimental data is shown as a blot, this represents one of at least 3 experiments and data represents the mean ± s.e.m. Statistical analysis was by one-way ANOVA with Dunnett's post test (*P < 0.05, **P < 0.01).
Fig. 5 Pharmacological blockade of protein kinase C reverses PAR2 mediated inhibition of TNFα-stimulated JNK activation. PAR2 expressing NCTC2544 cells (clone G) were pre-incubated with increasing concentrations of GF109203X (GFX) for 30 min then incubated for a further 30 min with 100 nM PMA (Panel A) or 30 nM trypsin (Panel B) prior to stimulation for a further 30 min with TNFα(+) (10 ng/ml). Samples were assessed for JNK activity (Panels A and B) or phospho-JNK levels (Panel D) as outlined in the Methods section. Gels from JNK activity assays were quantified by densitometry (Panel C). Each value represents the mean ± s.e.m from at least 4 experiments. ⁎⁎P < 0.01 compared to TNFα and trypsin stimulated.

PKC [5] = assay: TNFα-stimulated JNK phosphorylation, PKC activator / PKC inhibitor, PAR2 NCTC2544 cells; assay type: cell-based, human; conditions: 100 nM PMA
Method: as §1
Proteins were separated by 10% SDS–PAGE and transferred onto nitrocellulose. The membranes were blocked for non-specific binding for 2 h in 2% BSA (w/v) diluted in NATT buffer (50 mM Tris–HCl, 150 mM NaCl, 0.2% (v/v) Tween-20). […]
Fig. 5 Pharmacological blockade of protein kinase C reverses PAR2 mediated inhibition of TNFα-stimulated JNK activation. […] Samples were assessed for JNK activity (Panels A and B) or phospho-JNK levels (Panel D) as outlined in the Methods section. Gels from JNK activity assays were quantified by densitometry (Panel C). […]

TNFR1 = conditions: ref [42,50]; cited from earlier work
Description: Upon activation TNFR1 associates with a number of proteins including TRADD, RIP, TRAF2, MADD and FADD [46]. Formation of this complex at the membrane allows TNFα to mediate an array of different signalling events, such as induction of apoptosis through the FADD-caspase arm or activation of MAP kinase and NFκB signalling via TRAF2. For example, TRAF2 contains a conserved C-terminal region termed the TRAF domain, which interacts with TRADD and an N-terminal ring finge ...

p38 MAP kinase = conditions: higher concentrations, ref [37]; cited from earlier work
Description: Whilst this present study focuses on two agonist effects it is the first study to raise this potential when examining JNK activation. This model was also supported when examining the effect of the novel PAR2 antagonist K-14585 [33]. […] Taken together, these findings indicate two distinct agonist-directed signalling pathways driven by SLIGKV-OH, one dependent upon ...

human PAR2 [6] = molecular target: T1, human PAR2 (Homo sapiens, UniProt P55085); assay: Reversal by PAR2 antagonist of SLIGKV-OH-mediated inhibition of TNFα-stimulated JNK, PAR2 NCTC2544 cells; assay type: cell-based; conditions: 10 μM K14585 30 min, SLIGKV-OH 100 μM 30 min, then TNFα
T1 construct: expressed in transfected cells
T1 sequence (P55085 26-397): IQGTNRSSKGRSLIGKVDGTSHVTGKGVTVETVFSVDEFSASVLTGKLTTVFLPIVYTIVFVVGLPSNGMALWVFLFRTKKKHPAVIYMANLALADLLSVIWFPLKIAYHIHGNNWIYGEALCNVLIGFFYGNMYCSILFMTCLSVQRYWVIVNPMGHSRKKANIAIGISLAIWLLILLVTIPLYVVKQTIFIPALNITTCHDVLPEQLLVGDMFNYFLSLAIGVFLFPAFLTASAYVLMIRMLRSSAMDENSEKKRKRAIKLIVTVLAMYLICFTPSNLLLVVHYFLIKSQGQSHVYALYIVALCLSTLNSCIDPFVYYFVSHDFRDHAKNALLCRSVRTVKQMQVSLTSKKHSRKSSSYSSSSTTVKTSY
Method: as §1, §3
Fig. 3 Inhibition of TNFα-stimulated JNK activity is dependent upon PAR2 activation. […] Samples were assessed for JNK activity or phospho-JNK content as outlined in the Methods section. […]

human PAR2 [7] = molecular target: T1, human PAR2; assay: JNK activity, agent alone, PAR2 NCTC2544 cells (clone G); assay type: cell-based; conditions: higher concentrations, alone; not shown
Method: as §1
To measure JNK activity, cells were stimulated as appropriate and the reaction terminated by rapid aspiration and the addition of ice-cold PBS. The cells were solubilised in 20 mM HEPES buffer, pH 7.7, containing 50 mM NaCl, 0.1 mM EDTA, 0.1 mM Na3VO4, 0.1 mM PMSF, 10 mg/ml aprotinin, 10 mg/ml leupeptin, and 1% (w/v) Triton X-100. Lysates were clarified by centrifugation for 5 min at 13,000 rpm and equal amounts of protein were incubated with 20 μg of GST-c-Jun-(5–89) immobilized on glutathione-Sepharose at 4 °C for 3 h. […] Phosphorylation of GST-c-Jun was then determined by autoradiography. […]
Fig. 4 Concentration response effects of PAR2 peptides for activation of JNK and inhibition of TNFα-stimulated JNK. PAR2 expressing NCTC2544 cells (clone G) were incubated with increasing concentrations of SLIGKV-OH or 2f-LIGKV-OH for 30 min and assayed for JNK activity (Panel B) or stimulated for a further 30 min with TNFα (+) before JNK activity was assessed (Panel A). Samples were assessed for JNK activity as outlined in the Methods section. Gels from JNK assays were quantified (Panel C). Each value represents the mean ± s.e.m from at least 4 experiments and data was quantified by densitometry.

In the case of YM254890, the “inhibition of trypsin and peptide mediated [^3H]IP accumulation” value (Gq/11 [1]) is listed as “very effective inhibitor”, the “reversal of PAR2 mediated inhibition of JNK activity by Gq/11 inhibitor” value (Gq/11 [2]) is listed as “almost complete abrogation of peptide mediated inhibition; also recorded: complete reversal of PAR2 mediated JNK inhibition” and the “reversal of PAR2 mediated inhibition of JNK activity by Gq/11 inhibitor” value (Gq/11 [2]; listed as YM25480) is listed as “reversed PAR2 mediated inhibition”. The “reversal of PAR2 mediated disruption of TNFR1/TRADD complex” value (TNFR1/TRADD) was “effectively reversed PAR2 mediated disruption”, the “reversal of PAR2 mediated disruption of TNFR1/TRADD complex” value (TNFR1/TRADD; listed as YM25480) was “reversed” and the “reversal of PAR2 mediated inhibition of JNK phosphorylation by Gq/11 inhibitor” value (Gq/11 [3]) was “almost complete abrogation of peptide mediated inhibition of TNFα stimulated JNK phosphorylation”.

In the case of `CCCCCCCCCCCCCC(=O)O[C@@H]1[C@@H](C)[C@@]2(O)[C@@H](C=C(CO)C[C@]3(O)C(=O)C(C)=C[C@@H]23)[C@@H]2C(C)(C)[C@]12OC(C)=O` [PMA], the “effect of PKC activator on TNFα-stimulated JNK activity” value (PKC [4]) is given as “mimicked the inhibitory effect of SLIGKV-OH; also recorded: mimic the inhibitory effect of PAR2 activation; also recorded: abolishing both JNK activity and phosphorylation”, the “effect of PKC activator on TNFα-stimulated JNK phosphorylation” value (PKC [5]) is given as “abolishing both JNK activity and phosphorylation” and the “disruption of TNFR1 binding” value (TNFR1) is given as “disrupt TNFR1 binding”.

In the case of `NCCCC[C@H](NC(=O)CNC(=O)Nc1ccc2c(c1)c(CN1CCCC1)cn2Cc1c(Cl)cccc1Cl)C(=O)N[C@@H](Cc1ccccc1)C(=O)NC(c1ccccc1)c1ccccc1` [K-14585], the “p38 MAP kinase activation by K14585 alone” value (p38 MAP kinase) is listed as “able to activate both JNK (not shown) and p38 MAP kinase”, the “reversal of SLIGKV-OH-mediated JNK inhibition (words)” value (human PAR2 [6]) is listed as “able to reverse the inhibition of JNK; also recorded: able to reverse PAR2 mediated inhibition of TNFα signalling” and the “reversal of SLIGKV-OH-mediated JNK inhibition (words)” value (human PAR2 [6]; listed as K14585) is listed as “inhibition was reversed by pre-incubation”. The “reversal of SLIGKV-OH-mediated JNK inhibition (words)” value (human PAR2 [6]; listed as K14858) was “reversed” and the “JNK activation by K14585 alone” value (human PAR2 [7]) was “able to activate both JNK”.
